Data on one compound can be found in patent US11602530B2, “CRM1 inhibitors for treating epilepsy” (Biogen MA Inc., priority 2016, dated 2023).

The subject of series [1] is male NMRI mice. The series is described as follows: Pilocarpine model of temporal lobe epilepsy (TLE), spontaneous recurrent seizures. Conditions: for reduction in seizure activity: 7.5 mg/kg per os every other day for two weeks. Format: in vivo. How it is done:
FIG. 1 is a description of a pilocarpine model of temporal lobe epilepsy (TLE) in male NMRI mice. The treatment phase was compound E-1 in Table I administered at 7.5 mg/kg per os or vehicle, every other day for the two week treatment period. Vehicle was 0.6% plasdone PVP K29/32 and 0.6% poloxamer Pluronic F68 in water.
A well-established pilocarpine model of temporal lobe epilepsy (TLE) that has been recently optimized for mice can be used (Mazzuferi et al., Exp. Neurol. 238:156-67). Status epilepticus (SE) can be initiated with a single 300 mg/kg intraperitoneal (i.p.) injection of pilocarpine in male NMRI mice, 30 min after N-methylscopolamine bromide administration (1 mg/kg; i.p.). Within 10 to 45 min after pilocarpine treatment, animals display generalized tonic-clonic seizures that progress to continuous convulsive activity, i.e. SE. To limit the duration of SE, mice can be injected with a bolus dose of diazepam (10 mg/kg; i.p.) after 3 h. The mice typically show spontaneous recurrent seizures within few days after SE and continue to display them throughout their lifetime.
A separate cohort of animals (for example, n=40) can then undergo continuous monitoring for spontaneous recurrent seizures during 28 consecutive days beginning 8-10 weeks following pilocarpine induced SE. The seizure monitoring can be performed by simultaneous recording of locomotor activity with a 3D accelerometer and video. This system allows for automated detection of behavioral seizures by analysis of the accelerometry signal. All behavioral seizures can be scored according to the Racine's protocol after detailed review of corresponding video clips by experienced technical personnel. Secondary generalized seizures, a Racine's score of 3-5, will be quantified and used for calculation of total seizure counts. […]

Series [2] is described as follows: Body weight of treated mice in the pilocarpine TLE model. It counts as in vivo. Conditions: 7.5 mg/kg per os every other day for two weeks. How it is done: Following the general procedure described in Example 1 and outlined in FIG. 1, Compound E1 of Table I was administered to mice during the treatment phase at 7.5 mg/kg per os every other day for the two weeks of treatment.

Structures are written as SMILES.

Regarding `CC(C)(C)C(=O)NNC(=O)/C=C\n1cnc(-c2cc(C(F)(F)F)cc(C(F)(F)F)c2)n1` [Compound E-1, (Z)-3-(3-(3,5-bis(trifluoromethyl)phenyl)-1H-1,2,4-triazol-1-yl)-N′-pivaloylacrylohydrazide], in series [1] (a significant number of mice, chronic administration (FIG. 4)), the “reduction in seizure occurrence in comparison to vehicle treated mice” value is listed as 50%. Further, the “reduction in seizure activity” value is at least 50% in series [1] (all treated mice (24 dosed)) and 100% in series [1] (six of the treated mice). Moreover, in series [2], the “change in body weight of the treated mice” value is recorded as “no change”.
